{
  "source": "ChEMBL document CHEMBL5131502",
  "about": "“Improving the treatment of Parkinson's disease: Structure-based development of novel 5-HT2A receptor antagonists/inverse agonists” (Eur J Med Chem, 2022)",
  "format_in_all_cases": "ADME, organism-based",
  "settings_in_all_cases": "in vivo, po",
  "key": {"[1]": {"experiment": "Tmax in Sprague-Dawley rat at 4 mg/kg, IG administered as single dose measured upto 24 hrs by LC-MS/MS analysis"}, "[2]": {"experiment": "MRTlast in Sprague-Dawley rat at 4 mg/kg, IG administered as single dose measured upto 24 hrs by LC-MS/MS analysis"}, "[3]": {"experiment": "AUClast in Sprague-Dawley rat at 4 mg/kg, IG administered as single dose measured upto 24 hrs by LC-MS/MS analysis", "parameters": "dose 4 mg/kg, time < 24 hrs, route ig"}, "[4]": {"experiment": "Cmax in Sprague-Dawley rat at 4 mg/kg, IG administered as single dose measured upto 24 hrs by LC-MS/MS analysis", "parameters": "dose 4 mg/kg, time < 24 hrs, route ig"}, "[5]": {"experiment": "AUClast in Sprague-Dawley rat at 2 mg/kg, IG administered as single dose measured upto 24 hrs by LC-MS/MS analysis", "parameters": "dose 2 mg/kg, time < 24 hrs, route ig"}, "[6]": {"experiment": "Half life in Sprague-Dawley rat at 4 mg/kg, IG administered as single dose measured upto 24 hrs by LC-MS/MS analysis"}, "[7]": {"experiment": "Tmax in Sprague-Dawley rat at 2 mg/kg, IG administered as single dose measured upto 24 hrs by LC-MS/MS analysis"}, "[8]": {"experiment": "MRTlast in Sprague-Dawley rat at 2 mg/kg, IG administered as single dose measured upto 24 hrs by LC-MS/MS analysis"}, "[9]": {"experiment": "Half life in Sprague-Dawley rat at 2 mg/kg, IG administered as single dose measured upto 24 hrs by LC-MS/MS analysis"}, "[10]": {"experiment": "Cmax in Sprague-Dawley rat at 2 mg/kg, IG administered as single dose measured upto 24 hrs by LC-MS/MS analysis", "parameters": "dose 2 mg/kg, time < 24 hrs, route ig"}},
  "data": [
    {"compound": "CN1CCC(N(Cc2ccc(F)cn2)C(=O)NCc2ccc(OCC(F)(F)F)cc2)CC1.O=C(O)C(O)C(O)C(=O)O", "values": [
      {"measurement": "Tmax", "setting": "[1]", "result": 0.81, "unit": "h"},
      {"measurement": "MRT last at 24 h", "setting": "[2]", "result": 6.03, "unit": "h"},
      {"measurement": "AUC(0-t) at 24 h", "setting": "[3]", "result": 1.22, "unit": "µM·h"},
      {"measurement": "Cmax", "setting": "[4]", "result": 174, "unit": "nM"},
      {"measurement": "AUC(0-t) at 24 h", "setting": "[5]", "result": 0.683, "unit": "µM·h"},
      {"measurement": "half-life", "setting": "[6]", "result": 4.44, "unit": "h"},
      {"measurement": "Tmax", "setting": "[7]", "result": 0.9, "unit": "h"},
      {"measurement": "MRT last at 24 h", "setting": "[8]", "result": 6.3, "unit": "h"},
      {"measurement": "half-life", "setting": "[9]", "result": 4.72, "unit": "h"},
      {"measurement": "Cmax", "setting": "[10]", "result": 87.7, "unit": "nM"}
    ]}
  ]
}
